From the NIST ThermoML archive (doi:10.1021/je3013205)
Numbers after ± are expanded uncertainties.

Assay: xn = mol fraction of the nth substance listed
Settings: 101 kPa, Liquid, Vibrating tube method

NCCOCCO [2-(2-aminoethoxy)ethanol] + CO
mass density [kg/m3]
Settings | x2 = 0 | x2 = 0.0999 | x2 = 0.1999 | x2 = 0.3001 | x2 = 0.4 | x2 = 0.5 | x2 = 0.6002 | x2 = 0.6999 | x2 = 0.8 | x2 = 0.9001
283.15 K | 1063.9 ± 0.97 | 1055.89 ± 0.82 | 1046 ± 0.68 | 1034.44 ± 0.56 | 1019.81 ± 0.45 | 1002.23 ± 0.34 | 980.617 ± 0.27 | 953.558 ± 0.21 | 916.98 ± 0.17 | 868.243 ± 0.15
293.15 K | 1055.86 ± 0.95 | 1047.82 ± 0.81 | 1037.87 ± 0.67 | 1026.25 ± 0.55 | 1011.56 ± 0.43 | 993.898 ± 0.34 | 972.194 ± 0.27 | 945.032 ± 0.21 | 908.292 ± 0.17 | 859.298 ± 0.15
303.15 K | 1047.8 ± 0.94 | 1039.72 ± 0.79 | 1029.71 ± 0.66 | 1018.04 ± 0.54 | 1003.27 ± 0.43 | 985.526 ± 0.34 | 963.722 ± 0.27 | 936.443 ± 0.21 | 899.545 ± 0.17 | 850.287 ± 0.15
313.15 K | 1039.73 ± 0.92 | 1031.59 ± 0.78 | 1021.52 ± 0.64 | 1009.78 ± 0.52 | 995.032 ± 0.42 | 977.101 ± 0.34 | 955.185 ± 0.27 | 927.795 ± 0.21 | 890.727 ± 0.17 | 841.205 ± 0.15
323.15 K | 1031.63 ± 0.9 | 1023.41 ± 0.76 | 1013.29 ± 0.63 | 1001.48 ± 0.51 | 986.54 ± 0.42 | 968.618 ± 0.34 | 946.586 ± 0.27 | 919.061 ± 0.21 | 881.797 ± 0.18 | 832.01 ± 0.16
333.15 K | 1023.46 ± 0.89 | 1015.19 ± 0.75 | 1004.99 ± 0.62 | 993.102 ± 0.51 | 978.075 ± 0.41 | 960.052 ± 0.33 | 937.892 ± 0.27 | 910.228 ± 0.22 | 872.764 ± 0.18 | 822.672 ± 0.16

NCCO [2-aminoethan-1-ol] + CC(C)O
mass density [kg/m3]
Settings | x2 = 0 | x2 = 0.1001 | x2 = 0.1999 | x2 = 0.3002 | x2 = 0.4001 | x2 = 0.5001 | x2 = 0.5999 | x2 = 0.7 | x2 = 0.8002 | x2 = 0.8999
283.15 K | 1024.11 ± 0.25 | 999.024 ± 0.2 | 974.32 ± 0.18 | 949.806 ± 0.16 | 925.587 ± 0.15 | 902.006 ± 0.14 | 879.054 ± 0.13 | 856.17 ± 0.13 | 834.572 ± 0.12 | 813.792 ± 0.12
293.15 K | 1016.23 ± 0.24 | 990.993 ± 0.2 | 966.334 ± 0.18 | 941.791 ± 0.16 | 917.446 ± 0.15 | 893.95 ± 0.14 | 870.943 ± 0.13 | 848.018 ± 0.13 | 826.391 ± 0.13 | 805.582 ± 0.13
303.15 K | 1008.32 ± 0.24 | 982.903 ± 0.2 | 958.311 ± 0.18 | 933.723 ± 0.17 | 909.315 ± 0.15 | 885.794 ± 0.14 | 862.727 ± 0.14 | 839.735 ± 0.13 | 818.066 ± 0.13 | 797.19 ± 0.13
313.15 K | 1000.37 ± 0.23 | 974.928 ± 0.2 | 950.234 ± 0.18 | 925.597 ± 0.17 | 901.039 ± 0.15 | 877.533 ± 0.14 | 854.388 ± 0.14 | 831.308 ± 0.13 | 809.555 ± 0.13 | 788.57 ± 0.13
323.15 K | 992.364 ± 0.23 | 966.92 ± 0.2 | 942.073 ± 0.18 | 917.361 ± 0.17 | 892.673 ± 0.15 | 869.138 ± 0.15 | 845.897 ± 0.14 | 822.707 ± 0.14 | 800.81 ± 0.14 | 779.665 ± 0.14
333.15 K | 984.301 ± 0.23 | 958.72 ± 0.2 | 933.821 ± 0.18 | 909.018 ± 0.17 | 884.471 ± 0.16 | 860.597 ± 0.15 | 837.216 ± 0.14 | 813.881 ± 0.14 | 791.784 ± 0.14 | 770.393 ± 0.14
343.15 K | 976.153 ± 0.23 | 950.596 ± 0.2 | 925.458 ± 0.19 | 900.544 ± 0.17 | 875.887 ± 0.16 | 851.867 ± 0.15 | 828.323 ± 0.14 | 804.773 ± 0.14 | 782.457 ± 0.14 | 760.722 ± 0.14
